Data taken from US20230085307A1, “PYRIDAZINONE COMPOUND AND HERBICIDE” (NISSAN CHEMICAL CORPORATION, priority 2019, published 2023).

tested on: oval-leafed pondweed; test: Test Example 2: herbicidal activity, application during weed generation under submerged conditions (Table 17, symbol C); format: in vivo, oval-leafed pondweed (Monochoria vaginalis); conditions: AAH 320 g/ha; application during weed generation, submerged conditions
Outline: (§1)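 3-wk visual-criteria score after one water-surface dose. Emulsion formulation, water-diluted to set rate; applied at 1–2 leaf stage; alluvial soil, 4 cm standing water; seeds co-sown; greenhouse 25–30° C.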

| SMILES | herbicidal effect rating, C: oval-leafed pondweed |
| --- | --- |
| Cc1nn(C)c(=O)c(-c2c(-c3ccc(OC(F)F)cc3)sc3ccc(F)cc23)c1OC(=S)Sc1ccccc1 [2-298] | 0 (Herbicidal rate of 5% or less (almost no effect)) |

tested on: Italian ryegrass; test: Test Example 4: herbicidal effect by soil treatment (Table 19, symbol K); format: in vivo, Italian ryegrass (Lolium multiflorum); conditions: amount of applied herbicide 320 g/ha
Outline: (§2)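 Soil-surface application: an emulsion agent diluted with water to the predetermined dose is sprayed uniformly over seeds lying under roughly 1.5 cm of sterilized diluvial soil. Boxes stay in a greenhouse at 25° C. to 30° C. Three weeks later, each species is graded on previously defined criteria.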

| SMILES | herbicidal effect on K: Italian ryegrass |
| --- | --- |
| Cc1nn(C)c(=O)c(-c2c(-c3ccc(OC(F)F)cc3)sc3ccc(F)cc23)c1OC(=S)Sc1ccccc1 [2-298] | 0 (Herbicidal rate of 5% or less (almost no effect)) |

tested on: wild oat; test: Test Example 5: herbicidal effect by foliage application, plastic box (Table 20, symbol I); format: in vivo, wild oat (Avena fatua); conditions: foliage application, AAH 320 g/ha, evaluated three weeks after application
Outline: (§3)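 Sow seeds spot-wise in sterilized diluvial soil; cover with ~1.5 cm soil. Grow 14 days in greenhouse, 25° C. to 30° C. Spray foliage with emulsion diluted to predetermined amount. Rate effect after 3 weeks.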

| SMILES | I: wild oat, herbicidal effect (criteria 0-5) |
| --- | --- |
| Cc1nn(C)c(=O)c(-c2c(-c3ccc(OC(F)F)cc3)sc3ccc(F)cc23)c1OC(=S)Sc1ccccc1 [2-298] | 4 (Herbicidal rate of 70% or more and less than 90%) |

tested on: Japanese bulrush; test: Test Example 1: herbicidal activity, application before weed generation under submerged conditions (Table 16, symbol B); format: in vivo, Japanese bulrush (Schoenoplectus juncoides); conditions: 320 g/ha applied herbicide
Outline: (§4)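 Alluvial soil was flooded to 4 cm depth, weed seeds were sown mixed and 2.5-leaf rice seedlings were transplanted. On sowing day, the compound's emulsion, diluted in water to a set dose, was applied to the water surface. Plants grew at 25–30 °C and were scored 0–5 after three weeks.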

| SMILES | Herbicidal effect on B: Japanese bulrush (grade 0-5) |
| --- | --- |
| Cc1nn(C)c(=O)c(-c2c(-c3ccc(OC(F)F)cc3)sc3ccc(F)cc23)c1OC(=S)Sc1ccccc1 [2-298] | 3 (Herbicidal rate of 40% or more and less than 70%) |

tested on: late watergrass; test: Test Example 2: herbicidal activity, application during weed generation under submerged conditions (Table 17, symbol A); format: in vivo, late watergrass (Echinochloa oryzicola); conditions: AAH 320 g/ha; application during weed generation, submerged conditions
Outline: as §1

| SMILES | herbicidal effect rating, A: late watergrass |
| --- | --- |
| Cc1nn(C)c(=O)c(-c2c(-c3ccc(OC(F)F)cc3)sc3ccc(F)cc23)c1OC(=S)Sc1ccccc1 [2-298] | 3 (Herbicidal rate of 40% or more and less than 70%) |

tested on: green foxtail; test: Test Example 5: herbicidal effect by foliage application, plastic box (Table 20, symbol G); format: in vivo, green foxtail (Setaria viridis); conditions: foliage application, AAH 320 g/ha, evaluated three weeks after application
Outline: as §3

| SMILES | G: green foxtail, herbicidal effect (criteria 0-5) |
| --- | --- |
| Cc1nn(C)c(=O)c(-c2c(-c3ccc(OC(F)F)cc3)sc3ccc(F)cc23)c1OC(=S)Sc1ccccc1 [2-298] | 5 (Herbicidal rate of 90% or more (almost completely withered)) |

tested on: false cleavers; test: Test Example 4: herbicidal effect by soil treatment (Table 19, symbol Q); format: in vivo, false cleavers (Galium spurium); conditions: amount of applied herbicide 320 g/ha
Outline: as §2

| SMILES | herbicidal effect on Q: false cleavers |
| --- | --- |
| Cc1nn(C)c(=O)c(-c2c(-c3ccc(OC(F)F)cc3)sc3ccc(F)cc23)c1OC(=S)Sc1ccccc1 [2-298] | 0 (Herbicidal rate of 5% or less (almost no effect)) |

tested on: barnyard grass; test: Test Example 5: herbicidal effect by foliage application, plastic box (Table 20, symbol H); format: in vivo, barnyard grass (Echinochloa crus-galli); conditions: foliage application, AAH 320 g/ha, evaluated three weeks after application
Outline: as §3

| SMILES | H: barnyard grass, herbicidal effect (criteria 0-5) |
| --- | --- |
| Cc1nn(C)c(=O)c(-c2c(-c3ccc(OC(F)F)cc3)sc3ccc(F)cc23)c1OC(=S)Sc1ccccc1 [2-298] | 5 (Herbicidal rate of 90% or more (almost completely withered)) |

tested on: blackgrass; test: Test Example 5: herbicidal effect by foliage application, plastic box (Table 20, symbol J); format: in vivo, blackgrass (Alopecurus myosuroides); conditions: foliage application, AAH 320 g/ha, evaluated three weeks after application
Outline: as §3

| SMILES | J: blackgrass, herbicidal effect (criteria 0-5) |
| --- | --- |
| Cc1nn(C)c(=O)c(-c2c(-c3ccc(OC(F)F)cc3)sc3ccc(F)cc23)c1OC(=S)Sc1ccccc1 [2-298] | 4 (Herbicidal rate of 70% or more and less than 90%) |

tested on: redroot pigweed; test: Test Example 4: herbicidal effect by soil treatment (Table 19, symbol N); format: in vivo, redroot pigweed (Amaranthus retroflexus); conditions: amount of applied herbicide 320 g/ha
Outline: as §2

| SMILES | herbicidal effect on N: redroot pigweed |
| --- | --- |
| Cc1nn(C)c(=O)c(-c2c(-c3ccc(OC(F)F)cc3)sc3ccc(F)cc23)c1OC(=S)Sc1ccccc1 [2-298] | 3 (Herbicidal rate of 40% or more and less than 70%) |

tested on: southern crabgrass; test: Test Example 5: herbicidal effect by foliage application, plastic box (Table 20, symbol F); format: in vivo, southern crabgrass (Digitaria ciliaris); conditions: foliage application, AAH 320 g/ha, evaluated three weeks after application
Outline: as §3

| SMILES | F: southern crabgrass, herbicidal effect (criteria 0-5) |
| --- | --- |
| Cc1nn(C)c(=O)c(-c2c(-c3ccc(OC(F)F)cc3)sc3ccc(F)cc23)c1OC(=S)Sc1ccccc1 [2-298] | 3 (Herbicidal rate of 40% or more and less than 70%) |

tested on: windgrass; test: Test Example 4: herbicidal effect by soil treatment (Table 19, symbol L); format: in vivo, windgrass (Apera spica-venti); conditions: amount of applied herbicide 320 g/ha
Outline: as §2

| SMILES | herbicidal effect on L: windgrass |
| --- | --- |
| Cc1nn(C)c(=O)c(-c2c(-c3ccc(OC(F)F)cc3)sc3ccc(F)cc23)c1OC(=S)Sc1ccccc1 [2-298] | 0 (Herbicidal rate of 5% or less (almost no effect)) |

tested on: late watergrass; test: Test Example 1: herbicidal activity, application before weed generation under submerged conditions (Table 16, symbol A); format: in vivo, late watergrass (Echinochloa oryzicola); conditions: 320 g/ha applied herbicide
Outline: as §4

| SMILES | Herbicidal effect on A: late watergrass (grade 0-5) |
| --- | --- |
| Cc1nn(C)c(=O)c(-c2c(-c3ccc(OC(F)F)cc3)sc3ccc(F)cc23)c1OC(=S)Sc1ccccc1 [2-298] | 3 (Herbicidal rate of 40% or more and less than 70%) |

tested on: rice flat sedge; test: Test Example 3: herbicidal effect by foliage application, Wagner pot (Table 18, symbol E); format: in vivo, rice flat sedge (Cyperus iria); conditions: amount of applied herbicide 320 g/ha
Outline: (§5)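 Plants were sown in alluvial soil held under 0.1–0.5 cm standing water and grown 14 days in a greenhouse at 25–30 °C. An emulsifiable formulation, water-diluted to the set dose, was then sprayed onto the foliage, and effects were scored three weeks later using previously defined criteria.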

| SMILES | herbicidal effect on E: rice flat sedge |
| --- | --- |
| Cc1nn(C)c(=O)c(-c2c(-c3ccc(OC(F)F)cc3)sc3ccc(F)cc23)c1OC(=S)Sc1ccccc1 [2-298] | 5 (Herbicidal rate of 90% or more (almost completely withered)) |

tested on: persian speedwell; test: Test Example 5: herbicidal effect by foliage application, plastic box (Table 20, symbol R); format: in vivo, Persian speedwell (Veronica persica); conditions: foliage application, AAH 320 g/ha, evaluated three weeks after application
Outline: as §3

| SMILES | R: persian speedwell, herbicidal effect (criteria 0-5) |
| --- | --- |
| Cc1nn(C)c(=O)c(-c2c(-c3ccc(OC(F)F)cc3)sc3ccc(F)cc23)c1OC(=S)Sc1ccccc1 [2-298] | 5 (Herbicidal rate of 90% or more (almost completely withered)) |

tested on: barnyard grass; test: Test Example 3: herbicidal effect by foliage application, Wagner pot (Table 18, symbol H); format: in vivo, barnyard grass (Echinochloa crus-galli); conditions: amount of applied herbicide 320 g/ha
Outline: as §5

| SMILES | herbicidal effect on H: barnyard grass |
| --- | --- |
| Cc1nn(C)c(=O)c(-c2c(-c3ccc(OC(F)F)cc3)sc3ccc(F)cc23)c1OC(=S)Sc1ccccc1 [2-298] | 5 (Herbicidal rate of 90% or more (almost completely withered)) |

tested on: Chinese sprangletop; test: Test Example 3: herbicidal effect by foliage application, Wagner pot (Table 18, symbol D); format: in vivo, chinese sprangletop (Leptochloa chinensis); conditions: amount of applied herbicide 320 g/ha
Outline: as §5

| SMILES | herbicidal effect on D: Chinese sprangletop |
| --- | --- |
| Cc1nn(C)c(=O)c(-c2c(-c3ccc(OC(F)F)cc3)sc3ccc(F)cc23)c1OC(=S)Sc1ccccc1 [2-298] | 3 (Herbicidal rate of 40% or more and less than 70%) |
